Assay results published in patent publication US20130184280A1, “SUBSTITUTED THIAZOLES AS VEGFR2 KINASE INHIBITORS” (TELIK, INC., priority 2011, published 2013).

Assays:
[1] = In Vitro Cytotoxicity Assay HL60 (CellTiter-Glo); assay type: cell-based; conditions: human, HL60 promyelocytic leukemia cells; HL 60 cells, cultured three days
Method: (§1) The cell lines HL60 (human promyelocytic leukemia) and HCT116 (human colon carcinoma) were obtained from the American Type Culture Collection, Manassas, Va., U.S.A. All products were used in accordance with manufacturer's directions. The cytotoxicity assays were conducted in triplicate, in each case with solvent control.
(§2) Log-phase cells were trypsinized, collected by centrifugation, and resuspended in a small volume of fresh medium, and the density of viable cells was determined following Trypan Blue staining Cells were diluted in fresh media, the test compounds (concentrations between 0.1 μM and 200 μM, dissolved in DMSO, 50 μL) added immediately after dilution to achieve a final DMSO concentration of 0.5%, then the suspensions added at 150 μL/well to 96-well plates, and incubated overnight to allow attachment in the case of adherent cells. The cells were cultured for three days (about three doubling times). The cells were then collected by centrifugation, and 100 μL of the culture supernatant was replaced by the CellTiter-Glo reagent. After incubation for 15 minutes at room temperature, the plate was read with a luminometer. […] The table gives cytotoxicity IC50s in μm.

[2] = In Vitro Cytotoxicity Assay HCT116 (CellTiter-Glo); assay type: cell-based; conditions: human, HCT116 colon carcinoma cells, cultured three days
Method: as §1, §2

[3] = biological target: T1, VEGFR2 kinase (Homo sapiens, UniProt P35968); assay: In Vitro VEGFR2 Kinase Assay; assay type: biochemical; conditions: FP; CSKtide substrate, 60 minutes at room temperature
T1 construct: purchased InVitrogen
Method: In Vitro VEGFR2 Kinase Assay
50 ng/well VEGFR2 kinase (from InVitrogen) was mixed in buffer (14.5 μL/well). To this were added, 0.5 μL of the compound of this invention at a concentration of 2.5% in DMSO. After incubatiuon for 5 minutes at room temperature, 5 μL of substrate (CSKtide, 400 nM) and 8 μL ATP were added. The mixture was incubated for 60 minutes at room temperature and 60 uL of binding reagent (beads) was added. After incubation overnight at room temperature, the plate was read with a LJL plate reader.

T1 sequence (P35968 20-1356): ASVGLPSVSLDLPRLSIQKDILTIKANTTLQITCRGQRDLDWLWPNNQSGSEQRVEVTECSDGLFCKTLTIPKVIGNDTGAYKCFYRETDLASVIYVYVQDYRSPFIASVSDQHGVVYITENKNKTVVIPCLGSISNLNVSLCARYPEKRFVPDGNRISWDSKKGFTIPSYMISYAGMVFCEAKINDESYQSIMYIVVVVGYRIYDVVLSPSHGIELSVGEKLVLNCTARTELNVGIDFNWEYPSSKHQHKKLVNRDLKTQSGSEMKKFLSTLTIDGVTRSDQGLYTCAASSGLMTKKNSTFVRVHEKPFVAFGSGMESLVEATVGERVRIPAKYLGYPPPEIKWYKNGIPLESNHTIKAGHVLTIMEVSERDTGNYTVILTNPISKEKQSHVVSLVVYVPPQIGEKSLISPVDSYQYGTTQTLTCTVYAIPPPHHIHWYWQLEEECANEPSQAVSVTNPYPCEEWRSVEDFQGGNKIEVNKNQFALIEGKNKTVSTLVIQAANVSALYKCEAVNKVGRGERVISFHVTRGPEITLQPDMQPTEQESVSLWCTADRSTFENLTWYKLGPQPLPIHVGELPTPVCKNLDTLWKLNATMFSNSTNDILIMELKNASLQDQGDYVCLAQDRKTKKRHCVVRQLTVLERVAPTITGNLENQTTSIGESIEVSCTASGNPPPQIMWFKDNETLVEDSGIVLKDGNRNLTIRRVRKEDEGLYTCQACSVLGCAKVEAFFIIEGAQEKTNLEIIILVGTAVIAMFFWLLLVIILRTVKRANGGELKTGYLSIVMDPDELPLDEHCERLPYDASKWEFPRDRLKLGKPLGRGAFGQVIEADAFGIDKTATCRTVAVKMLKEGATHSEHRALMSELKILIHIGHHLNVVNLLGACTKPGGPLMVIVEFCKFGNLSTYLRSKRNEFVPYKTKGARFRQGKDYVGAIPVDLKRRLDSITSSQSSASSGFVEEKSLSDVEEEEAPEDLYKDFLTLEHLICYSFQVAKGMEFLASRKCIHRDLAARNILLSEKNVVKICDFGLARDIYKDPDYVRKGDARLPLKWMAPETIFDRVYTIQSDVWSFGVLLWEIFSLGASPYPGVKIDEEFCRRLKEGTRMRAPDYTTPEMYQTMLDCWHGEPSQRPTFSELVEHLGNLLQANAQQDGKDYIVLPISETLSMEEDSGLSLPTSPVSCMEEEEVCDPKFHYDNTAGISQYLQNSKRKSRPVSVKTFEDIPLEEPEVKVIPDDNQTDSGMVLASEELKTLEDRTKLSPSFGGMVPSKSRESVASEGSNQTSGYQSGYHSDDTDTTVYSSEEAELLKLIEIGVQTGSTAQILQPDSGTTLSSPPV

IC50 [3] [nM]	Compound	IC50 at 3 days [1] [nM]	IC50 at 3 days [2] [nM]
40	Nc1ncncc1-c1nc(-c2cccc(NC(=O)NC3CCCCC3)c2)cs1 [Compound 65]	1000	8000
200	CCc1cccc(C)c1NC(=O)Nc1cccc(-c2csc(-c3cncnc3N)n2)c1 [Compound 38]	–	> 50000
400	Cc1cccc(NC(=O)c2cccc(-c3csc(-c4cncnc4N)n3)c2)c1 [Compound 49]	–	10000
40	Cc1ccc(NC(=O)Nc2cccc(-c3csc(-c4cncnc4N)n3)c2)cc1C [Compound 27]	4000	2000
100	Nc1ncncc1-c1nc(-c2cccc(NC(=O)Nc3cccc(F)c3)c2)cs1 [Compound 12]	100	40000
70	Nc1ncncc1-c1nc(-c2cccc(NC(=O)c3ccc(Cl)cc3)c2)cs1 [Compound 8]	300	20000
60	Nc1ncncc1-c1nc(-c2cccc(NC(=O)Nc3ccc4c(c3)OCO4)c2)cs1 [Compound 72]	300	2000
–	Nc1ncncc1-c1nc(-c2cccc(NC(=O)c3ccncc3)c2)cs1 [Compound 24]	–	30000
500	Nc1ncncc1-c1nc(-c2cccc(NC(=O)c3cccc(CN4CCOCC4)c3)c2)cs1 [Compound 52]	1000	4000
60	Nc1ncncc1-c1nc(-c2cccc(NC(=O)NCc3ccccc3)c2)cs1 [Compound 58]	400	4000
20	Nc1ncncc1-c1nc(-c2cccc(NC(=O)Nc3ccc(F)c(C(F)(F)F)c3)c2)cs1 [Compound 10]	500	2000
400	Nc1ncncc1-c1nc(-c2cccc(NC(=O)N3CCC(O)CC3)c2)cs1 [Compound 69]	–	4000
10	Cc1cccc(C(=O)Nc2cccc(-c3csc(-c4cncnc4N)n3)c2)c1 [Compound 41]	–	20000
10	Cc1ccc(NC(=O)Nc2cccc(-c3csc(-c4cncnc4N)n3)c2)cc1Cl [Compound 11]	–	3000
300	CCOC(=O)CNC(=O)Nc1cccc(-c2csc(-c3cncnc3N)n2)c1 [Compound 59]	–	30000
300	Nc1ncncc1-c1nc(-c2cccc(NC(=O)CN3CCCCC3)c2)cs1 [Compound 67]	–	10000
20	Nc1ncncc1-c1nc(-c2cccc(NC(=O)C3CCCCC3)c2)cs1 [Compound 62]	–	> 50000
20	Nc1ncncc1-c1nc(-c2cccc(NC(=O)Nc3ccc(Cl)c(C(F)(F)F)c3)c2)cs1 [Compound 22]	1000	1000
30	Nc1ncncc1-c1nc(-c2cccc(NC(=O)Nc3cccc(CO)c3)c2)cs1 [Compound 44]	–	30000
500	Nc1ncncc1-c1nc(-c2cccc(NC(=O)c3cccnc3)c2)cs1 [Compound 23]	–	10000
70	Nc1ncncc1-c1nc(-c2cccc(NC(=O)NC3CCCC3)c2)cs1 [Compound 63]	–	7000
300	Nc1ncncc1-c1nc(-c2cccc(NC(=O)C3CCCC3)c2)cs1 [Compound 64]	–	> 50000
50	Nc1ncncc1-c1nc(-c2cccc(NC(=O)Nc3ccccc3[N+](=O)[O-])c2)cs1 [Compound 33]	–	> 50000

IC50 [3] [nM]	Compound	IC50 at 3 days [1] [nM]	IC50 at 3 days [2] [nM]
400	Nc1ncncc1-c1nc(-c2cccc(NC(=O)c3ccc(-c4ccccc4)cc3)c2)cs1 [Compound 15]	1000	3000
10	Nc1ncncc1-c1nc(-c2cccc(NC(=O)Nc3ccccc3)c2)cs1 [Compound 4]	200	6000
300	Nc1ncncc1-c1nc(-c2cccc(NC(=O)c3ccc(F)c(F)c3)c2)cs1 [Compound 9]	20000	50000
70	Cc1ccccc1NC(=O)Nc1cccc(-c2csc(-c3cncnc3N)n2)c1 [Compound 19]	900	> 50000
100	Nc1ncncc1-c1nc(-c2cccc(NC(=O)c3cccc(CNCCO)c3)c2)cs1 [Compound 56]	2000	3000
200	Nc1ncncc1-c1nc(-c2cccc(NC(=O)c3ccc([N+](=O)[O-])cc3)c2)cs1 [Compound 13]	> 50000	> 50000
100	CCOC(=O)c1cccc(NC(=O)Nc2cccc(-c3csc(-c4cncnc4N)n3)c2)c1 [Compound 42]	–	4000
100	Nc1ncncc1-c1nc(-c2cccc(NC(=O)Cc3cccc(C(F)(F)F)c3)c2)cs1 [Compound 40]	–	7000
70	CCc1ccc(NC(=O)Nc2cccc(-c3csc(-c4cncnc4N)n3)c2)cc1 [Compound 28]	1000	8000
300	CC(=O)Nc1cccc(-c2csc(-c3cncnc3N)n2)c1 [Compound 61]	–	40000
4	Nc1ncncc1-c1nc(-c2cccc(NC(=O)Nc3ccc(Cl)cc3)c2)cs1 [Compound 16]	1000	10000
300	CCCCOC(=O)c1ccccc1NC(=O)Nc1cccc(-c2csc(-c3cncnc3N)n2)c1 [Compound 36]	–	10000
40	Nc1ncncc1-c1nc(-c2cccc(NC(=O)Cc3ccccc3)c2)cs1 [Compound 45]	–	30000
400	N#Cc1cccc(NC(=O)Nc2cccc(-c3csc(-c4cncnc4N)n3)c2)c1 [Compound 30]	–	> 50000
80	CCNC(=O)Nc1cccc(-c2csc(-c3cncnc3N)n2)c1 [Compound 60]	–	> 50000
20	CC(C)(O)c1cccc(NC(=O)Nc2cccc(-c3csc(-c4cncnc4N)n3)c2)c1 [Compound 43]	–	5000
30	Nc1ncncc1-c1nc(-c2cccc(NC(=O)c3ccc(F)cc3)c2)cs1 [Compound 5]	–	30000
–	Nc1ncncc1-c1nc(-c2ccc(NC(=O)Nc3cccc(C(F)(F)F)c3)cc2)cs1 [Compound 1]	900	4000
300	COc1ccccc1C(=O)Nc1cccc(-c2csc(-c3cncnc3N)n2)c1 [Compound 25]	–	10000
60	N#Cc1ccc(NC(=O)Nc2cccc(-c3csc(-c4cncnc4N)n3)c2)cc1 [Compound 29]	–	> 50000
90	Cc1nc(-c2cccc(NC(=O)Nc3cccc(-c4csc(-c5cncnc5N)n4)c3)c2)no1 [Compound 47]	–	> 50000
60	Nc1ncncc1-c1nc(-c2cccc(NC(=O)Nc3cccc(Cl)c3)c2)cs1 [Compound 31]	–	1000
200	Nc1ncncc1-c1nc(-c2cccc(NC(=O)N3CCCCC3)c2)cs1 [Compound 68]	–	20000
